Data published in patent publication US4473579A, “Antiatherosclerotic tetrasubstituted ureas and thioureas” (American Cyanamid Company, priority 1982, dated 1984).

Assays:
[1] = molecular target: T1, fatty acyl CoA:cholesterol acyl transferase (ACAT) (Rattus norvegicus, UniProt O70536); assay: In vitro inhibition of fatty acyl CoA:cholesterol acyl transferase (ACAT), rat adrenal supernatant; format: biochemical; conditions: test compound final concentration 5.2 g./ml. (so in the source), pH 7.4, 37° C., 10 minutes
T1 construct: Rat adrenals were homogenized in 0.2M monobasic potassium phosphate buffer; from tissue; host or cells: rat adrenals, 1000 x g supernatant containing the microsomal fraction
T1 sequence (O70536 1-545): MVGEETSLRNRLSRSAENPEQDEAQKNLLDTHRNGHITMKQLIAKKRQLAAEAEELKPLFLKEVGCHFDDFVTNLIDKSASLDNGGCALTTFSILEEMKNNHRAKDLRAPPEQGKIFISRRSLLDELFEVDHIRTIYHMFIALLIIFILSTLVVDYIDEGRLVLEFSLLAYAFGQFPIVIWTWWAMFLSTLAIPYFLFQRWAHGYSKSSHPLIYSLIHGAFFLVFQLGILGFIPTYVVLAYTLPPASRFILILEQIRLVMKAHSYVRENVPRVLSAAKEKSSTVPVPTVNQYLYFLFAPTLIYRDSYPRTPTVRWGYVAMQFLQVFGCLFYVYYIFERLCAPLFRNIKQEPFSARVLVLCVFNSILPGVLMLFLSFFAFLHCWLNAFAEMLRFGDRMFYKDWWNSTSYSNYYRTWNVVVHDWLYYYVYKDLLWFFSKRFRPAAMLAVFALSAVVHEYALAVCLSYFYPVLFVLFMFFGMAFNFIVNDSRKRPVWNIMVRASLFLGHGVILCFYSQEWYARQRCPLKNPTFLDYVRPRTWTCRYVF
Protocol: (§1) The compounds of the present invention were assayed for two types of biological activity related to their potential use as antiatherosclerotic agents. Compounds were tested in vitro for their ability to inhibit the enzyme fatty acyl CoA:cholesterol acyl transferase (ACAT) and in vivo for serum hypolipidemic activity as measured by their ability to inhibit lipid absorption in rats. The compounds were tested for their ability to inhibit ACAT according to the following procedure:
Rat adrenals were homogenized in 0.2M monobasic potassium phosphate buffer, pH 7.4, and centrifuged at 1000 times gravity for 15 minutes at 5° C. The supernatant, containing the microsomal fraction, served as the source of the cholesterol-esterifying enzyme, fatty acyl CoA:cholesterol acyl transferase (ACAT). A mixture comprising 50 parts of adrenal supernatant, 10 parts of albumin (BSA) (50 mg./ml.), 3 parts of test compound (final concentration […].) and 500 parts of buffer was preincubated at 37° C. for 10 minutes. After treatment with 20 parts of oleoyl CoA(^14 C-[…]) the mixture was incubated at 37° C. for 10 minutes. A control mixture, omitting the test compound, was prepared and treated in the same manner. The lipids from the incubation mixture were extracted into an organic solvent and separated by thin-layer chromatography. The cholesteryl ester fraction was counted in a scintillation counter. This procedure is a modification of that described by Hashimoto, et al., Life Scie., 12 (Part II), 1-12 (1973).

cholesterol absorption = assay: Inhibition of cholesterol absorption in cholesterol/cholic acid fed rats (serum or liver cholesterol lowering); format: in vivo, male Sprague-Dawley rats; conditions: 0.03% of the diet; 1% cholesterol: 0.5% cholic acid diet for 2 weeks; lowering of serum or liver cholesterol relative to control rats
Protocol: as §1
Inhibition of cholesterol absorption was determined by feeding male Sprague-Dawley rats, weighing 150-170 g., a 1% cholesterol: 0.5% cholic acid diet for 2 weeks. The diet was contained compounds being tested at a dose of 0.03% of the diet. Control rats were fed the same diet without any compound. At the end of the test, the rats were sacrificed by decapitation. Blood is collected, centrifuged at 1.5 kg times gravity for 10 minutes at 4° C., and the serum is then analyzed for cholesterol and triglycerides enzymatically by the method of Trinder, P., Analyst, 77, 321 (1952) on a Centrifichem 400 Analyzer. […] The resulting neutral sterols are extracted with petroleum ether and extract analyzed for cholesterol. The effectiveness of the compound in inhibiting cholesterol absorption is measured by the lowering of either serum cholesterol or liver cholesterol relative the values for control rats.

SMILES | % Inhibition (ACAT) [1] [%] | Result (inhibition of cholesterol absorption) (cholesterol absorption)
CCCCN(Cc1ccccc1)C(=O)N(Cc1ccccc1)c1ccccc1 [1,3-Dibenzyl-1-(n-butyl)-3-phenylurea] | 81.8 | 
CCCCN(Cc1ccccc1)C(=O)N(c1ccccc1)c1cccc2ccccc12 [1-Benzyl-1-(n-butyl)-3-(1-naphthyl)-3-phenylurea] | 76.3 | 
CCCCN(Cc1ccccc1)C(=O)N(c1ccccc1)c1cccc(C)c1 [1-Benzyl-1-(n-butyl)-3-(3-methylphenyl)-3-phenylurea] | 82.0 | 
CCCCN(Cc1ccccc1)C(=O)N(CCCC)Cc1ccccc1 [1,3-Dibenzyl-1,3-di-(n-butyl)urea] | 95.4 | 
CCCCN(Cc1ccccc1)C(=O)N(c1ccc2ccccc2c1)c1ccc2ccccc2c1 [1-Benzyl-1-(n-butyl)-3,3-di(2-naphthyl)urea] | 93.2 | 
CCCCN(Cc1ccccc1)C(=O)N(c1ccccc1)c1cccc(Cl)c1 [1-Benzyl-1-(n-butyl)-3-(3-chlorophenyl)-3-phenylurea] | 72.3 | 
CCCCN(Cc1ccccc1)C(=O)N(c1ccccc1)c1ccc(OC(C)C)cc1 [1-Benzyl-1-(n-butyl)-3-(4-isopropoxyphenyl)-3-phenylurea] | 77.8 | 
CCCCN(Cc1ccccc1)C(=O)N(c1ccccc1)c1ccccc1 [1-Benzyl-1-(n-butyl)-3,3-diphenylurea] | 75.9 | 
CCCCN(Cc1ccccc1)C(=O)N(c1cccc(Cl)c1)c1ccc2ccccc2c1 [1-Benzyl-1-(n-butyl)-3-(3-chlorophenyl)-3-(2-naphthyl)urea] | 82.7 | 
CCCCN(Cc1ccccc1)C(=O)N(c1ccccc1)c1ccc2ccccc2c1 [1-Benzyl-1-(n-butyl)-3-(2-naphthyl)-3-phenylurea] | 83.6 | 
CCCCN(Cc1ccccc1)C(=O)N(c1ccccc1)c1cccc(OC)c1 [1-Benzyl-1-(n-butyl)-3-(3-methoxyphenyl)-3-phenylurea] | 82.5 | Active
